Measured values taken from patent US20100119599A1 (ARCHER PHARMACEUTICALS, INC., priority 2006, published 2010).
Where two headings read alike, the source gives them in different places.

What was measured:
Aβ1-40 = assay: Measurement of Aβ1-40 in culture medium of 7W WT APP751 CHO cells by ELISA; format: cell-based, Chinese hamster; settings: for activity at 5 µM: Cricetulus griseus, 5 μM test compound, CHO cells stably transfected with human APP751, culture medium, ELISA, control DMSO;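 on all read-outs here: 5 µM test compound but RI-coded compounds at 10 µM for 24 hours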
Aβ1-42 = assay: Measurement of Aβ1-42 in culture medium of 7W WT APP751 CHO cells by ELISA; format: cell-based, Chinese hamster; settings: for activity at 5 µM: Cricetulus griseus, 5 μM test compound, CHO cells stably transfected with human APP751, culture medium, ELISA, control DMSO;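 on Aβ1-42 (% of control): 5 µM test compound but RI-coded compounds at 10 µM for 24 hours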
[1] = CHO cells that overexpress APP751, zero = below the detection limit of the assay

## CCOC(=O)C1=CN(c2cc(C)ccc2C)C=C(C(=O)OCC)C1c1cc(OC)c(OC)cc1OC [ST052474, ethyl 1-(2,5-dimethylphenyl)-5-(ethoxycarbonyl)-4-(2,4,5-trimethoxyphenyl)-1,4-dihydropyridine-3-carboxylate]
Aβ1-40; [1]
  Aβ1-40 (% of control): 5.404 % of control
Aβ1-42; [1]
  Aβ1-42 (% of control): 3.498 % of control

## N#CC(C#N)=CC=C1C=CN(C2CCCCC2)C=C1 [ST019328]
Aβ1-40; Table 3
  activity at 5 µM: 59%
Aβ1-42; Table 3, read-out: Aβ-42 (% of control)
  activity at 5 µM: 92.2%

## CC1=C(C(=O)OCCOc2ccccc2)C(c2ccc(Br)cc2)C2=C(CCCC2=O)N1 (stereo not drawn) [ST014890, 2-phenoxyethyl 4-(4-bromophenyl)-2-methyl-5-oxo-1,4,6,7,8-pentahydroquinoline-3-carboxylate]
Aβ1-40; Table 1, 0 = no detectable amount
  activity at 5 µM: 13.2%
Aβ1-42; Table 1, 0 = no detectable amount, read-out: Aβ1-42 (% of control)
  activity at 5 µM: 67.5%
